Experimental data reported in US10131673B2, “Piperidine substituted tricyclic pyrazolo[1,5-a]pyrimidine derivatives with inhibitory activity on the replication of the respiratory syncytial virus (RSV)” (priority 2014, dated 2018).

How the values were obtained:
rgRSV224 virus = assay: microbe, parasite or virus in culture; assay type: cell-based, respiratory syncytial virus (RSV); conditions: for EC50: human respiratory syncytial virus, HeLa, 72 h, read-out: RSV HELA pEC50 (converted); for RSV HELA pEC50: rgRSV224 virus MOI=1, HeLa cells, GFP expression three days post-virus exposure

Protocol for HeLa cells: Black 384-well clear-bottom microtiter plates (Corning, Amsterdam, The Netherlands) were filled via acoustic drop ejection using the echo liquid handler (Labcyte, Sunnyvale, Calif.). 200 nL of compound stock solutions (100% DMSO) were transferred to the assay plates. 9 serial 4-fold dilutions of compound were made, creating per quadrant the same compound concentration. The assay was initiated by adding 10 μL of culture medium to each well (RPMI medium without phenol red, 10% FBS-heat inactivated, 0.04% gentamycin (50 mg/mL). All addition steps are done by using a multidrop dispenser (Thermo Scientific, Erembodegem, Belgium). Next, rgRSV224 virus (MOI=1) diluted in culture medium was added to the plates. rgRSV224 virus is an engineered virus that includes an additional GFP gene (Hallak L K, Spillmann D, Collins P L, Peeples M E. Glycosaminoglycan sulfation requirements for respiratory syncytial virus infection; Journal of virology (2000), 74(22), 10508-13) and was in-licensed from the NIH (Bethesda, Md., USA). Finally, 20 μL of a HeLa cell suspension (3,000 cells/well) were plated. Medium, virus- and mock-infected controls were included in each test. The wells contain 0.05% DMSO per volume. Cells were incubated at 37° C. in a 5% CO2 atmosphere. Three days post-virus exposure, viral replication was quantified by measuring GFP expression in the cells by an in house developed MSM laser microscope (Tibotec, Beerse, Belgium). The EC50 was defined as the 50% inhibitory concentration for GFP expression. In parallel, compounds were incubated for three days in a set of white 384-well microtiter plates (Corning) and the cytotoxicity of compounds in HeLa cells was determined by measuring the ATP content of the cells using the ATPlite kit (Perkin Elmer, Zaventem, Belgium) according to the manufacturer's instructions. The CC50 was defined as the 50% concentration for cytotoxicity.

| Compound | TOX HELA pCC50 (HeLa cells) | EC50 (rgRSV224 virus) | RSV HELA pEC50 (rgRSV224 virus) |
| --- | --- | --- | --- |
| Cc1cccc2ncnc(N3CCCCC3c3cc4nc5c(c(N6CCOCC6)n4n3)CCOC5)c12 (stereo not drawn) [Compound P29, 2-(1-(5-methylquinazolin-4-yl)piperidin-2-yl)-9-morpholino-7,8-dihydro-5H-pyrano[3,4-d]pyrazolo[1,5-a]pyrimidine] | 4 | 3720 nM | – |
| Cc1cccc2ncnc(N3CCCCC3c3cc4nc5c(c(N6CCOCC6)n4n3)COCC5)c12 (stereo not drawn) [Compound P30, 2-(1-(5-methylquinazolin-4-yl)piperidin-2-yl)-9-morpholino-6,8-dihydro-5H-pyrano[4,3-d]pyrazolo[1,5-a]pyrimidine] | 4 | 282 nM | – |
| Cc1cccc2nc(NS(C)(=O)=O)nc(N3CCCCC3c3cc4nc5c(c(N6CCOCC6)n4n3)COCC5)c12 (stereo not drawn) [Compound P32, N-(5-methyl-4-(2-(9-morpholino-6,8-dihydro-5H-pyrano[4,3-d]pyrazolo-[1,5-a]pyrimidin-2-yl)piperidin-1-yl)quinazolin-2-yl)methanesulfonamide] | 4 | 55 nM | – |
| CCOc1nc(N2CCCCC2c2cc3nc4c(c(N5CCOCC5)n3n2)COCC4)c2c(C)cccc2n1 (stereo not drawn) [Compound P33, 2-(1-(2-ethoxy-5-methylquinazolin-4-yl)piperidin-2-yl)-9-morpholino-6,8-dihydro-5H-pyrano[4,3-d]pyrazolo[1,5-a]pyrimidine] | 4.4 | 813 nM | – |
| Cc1ccc(NS(C)(=O)=O)c(C(=O)N2CCCCC2c2cc3nc4c(c(N5CCOCC5)n3n2)COCC4)c1 (stereo not drawn) [Compound P34, N-(4-methyl-2-(2-(9-morpholino-6,8-dihydro-5H-pyrano[4,3-d]pyrazolo-[1,5-a]pyrimidin-2-yl)piperidine-1-carbonyl)phenyl)methanesulfonamide] | 4.6 | 20.9 nM | – |
| Cc1cccc2ncnc(N3CCCCC3c3cc4nc5c(c(C)n4n3)CCCC5)c12 (stereo not drawn) [Compound P35, 9-methyl-2-(1-(5-methylquinazolin-4-yl)piperidin-2-yl)-5,6,7,8-tetrahydropyrazolo[5,1-b]quinazoline] | 4.6 | 776 nM | – |
| Cc1cccc2ncnc(N3CCCC[C@@H]3c3cc4nc5c(c(C)n4n3)CCCC5)c12 [Compound P37] | 4.4 | – | 5.11 |
| Cc1cccc2ncnc(N3CCCC[C@H]3c3cc4nc5c(c(C)n4n3)CCCC5)c12 [Compound P38] | 4.6 | – | 6.79 |
| Cc1nc2cc([C@H]3CCCCN3c3ncnc4cccc(C)c34)nn2c2c1CCCC2 [Compound P39] | 4.9 | – | 5.55 |
| Cc1nc2cc([C@@H]3CCCCN3c3ncnc4cccc(C)c34)nn2c2c1CCCC2 [Compound P40] | 4.7 | – | 6.7 |
| Cc1cccc2nc(NS(C)(=O)=O)nc(N3CCCCC3c3cc4nc5c(c(N6CCOCC6)n4n3)CCC5)c12 (stereo not drawn) [Compound P41, N-(5-methyl-4-(2-(8-morpholino-6,7-dihydro-5H-cyclopenta[d]pyrazolo-[1,5-a]pyrimidin-2-yl)piperidin-1-yl)quinazolin-2-yl)methanesulfonamide] | 4 | 229 nM | – |
| Cc1cccc2ncnc(N3CCCCC3c3cc4nc5c(c(N(C)C)n4n3)CCN5C)c12 (stereo not drawn) [Compound P42, N,N,5-trimethyl-2-(1-(5-methylquinazolin-4-yl)piperidin-2-yl)-6,7-dihydro-5H-pyrazolo[1,5-a]pyrrolo[2,3-d]pyrimidin-8-amine] | 4.6 | 16.6 nM | – |
